Experiments:
3T3-L1 adipocytes [1] = test: Cytotoxicity to adipocytes at the concentrations used to stimulate lipolysis; format: cell-based, murine; conditions: at the concentrations used to stimulate lipolysis (data not shown)
Source text: Both HB2031 and HB2032 were not cytotoxic to 3T3-L1 adipocytes at the concentrations used to simulate lipolysis (data not shown).

3T3-L1 adipocytes [2] = test: Lipolysis: free fatty acid release in differentiated adipocytes (BioVision Free Fatty Acid Quantification Kit); format: cell-based, murine; conditions: 100 μg/ml, overnight; for free fatty acids production in adipocytes relative to known lipolysis inducers (FIG. 4): compared with carnitine, resveratrol, isoproterenol, aminophylline, theophylline, caffeine
Procedure: The degree of fatty acid release can be used to gauge the relative level of glycerol release given this correlation. The following methods were used to determine the effect of 4-methyl-2-(octanoylamino) pentanoic acid and N-isopentyloctanamide on lipolysis in adipocytes.
(§1) The induction of lipolysis in differentiated adipocytes was determined in 3T3-L1 adipocytes using a fatty acid assay kit manufactured by BioVision (Mountain View, Calif.) (Free Fatty Acid Quantification Kit, Cat. No. K612-100). Free fatty acid release correlates with an increase in the level of glycerol. Adipocytes for these assays were prepared as follows. 3T3-L1 murine pre-adipocytes were purchased from the American Type Culture Collection (ATCC) (CL-173™). The cells were cultured in complete medium (ATCC-formulated Dulbecco's Modified Eagle's Medium supplemented with 10% bovine calf serum) and allowed to reach 100% confluence. The induction of differentiation or adipogenesis was carried out in complete medium. On day 0, cells were treated with complete medium containing induction agents (100 μg/ml isobutylmethyxanthine (Sigma, St. Louis, Mo.), 5 μg/ml insulin and 2 μg/ml dexamethasone). On day 3, cells were changed to complete medium containing 5 μg/ml insulin and incubated for 2-3 days. Then, cells were maintained in complete medium for 3-6 days when the majority of cells developed observable intracellular lipid droplets.
For analyzing the effects of 4-methyl-2-(octanoylamino) pentanoic acid and N-isopentyloctanamide on lipolysis, cells (adipocytes prepared above) were treated with either of these compounds at 100 μg/ml. Alternatively, cells were treated overnight with certain substances (e.g., resveratrol, isoproterenol, aminophylline, theophylline) (100 μg/ml) previously known to be lipolysis inducers. Supernatant from each of the cultures was measured for relative glycerol release as estimated using the free fatty acid quantification kit from BioVision following the manufacturer's instructions.

EpiDerm™ Skin Model = test: EpiDerm MTT assay for cytotoxicity toward skin tissue; format: cell-based; conditions: for cell viability (OD570) compared to the glycerin vehicle: 100 μg/ml, 2, 5 and 18 hour incubation (FIG. 7); for toxicity to skin tissue: 1 mg/ml for 24 hours (data not shown)
3T3-L1 preadipocytes = test: Adipogenesis assay, Oil red O staining of lipid droplets (Cayman Adipogenesis Assay Kit); format: cell-based, murine
Procedure: as §1
Intracellular lipid droplet production in adipocytes is a feature of adipogenesis. Therefore, adipogenesis was monitored by staining for lipid droplets in cells using the Adipogenesis Assay Kit from Cayman (Ann Arbor, Mich.) following the manufacture's instructions. […]

Structure (SMILES) | cytotoxicity to 3T3-L1 adipocytes (3T3-L1 adipocytes [1]) | free fatty acids production compared with isoproterenol, assay in triplicate (FIG. 5) (3T3-L1 adipocytes [2]) | free fatty acids production in adipocytes relative to known lipolysis inducers (FIG. 4) (3T3-L1 adipocytes [2]) | cell viability (OD570) compared to the glycerin vehicle (EpiDerm™ Skin Model) | toxicity to skin tissue (EpiDerm™ Skin Model) | differentiation of cells into adipocytes (enlarged cells, intracellular lipid droplets) (3T3-L1 preadipocytes; 100, 150, 200 μg/ml with adipogenesis inducers for nine days, concentration dependent (FIG. 6C-E)) | intensity of cellular lipid formation (Oil red O staining) (3T3-L1 preadipocytes; low concentration (FIG. 6C, 100 μg/ml), nine days)
CCCCCCCC(=O)NC(CC(C)C)C(=O)O (stereo not drawn) [HB2031, 4-methyl-2-(octanoylamino) pentanoic acid] | not cytotoxic | significantly more active than isoproterenol | to a higher degree than all the other compounds tested | no difference in cell viability | no toxicity |  | 
CCCCCCCC(=O)NCCC(C)C [HB2032, N-isopentyloctanamide] | not cytotoxic | significantly more active than isoproterenol | to a higher degree than all the other compounds tested | no difference in cell viability | no toxicity | inhibited the differentiation of cells into adipocytes | significantly reduced
